The text below walks through data of ChEMBL document CHEMBL5257082, “Bacterial GTPases as druggable targets to tackle antimicrobial resistance” (Bioorg Med Chem Lett, 2023).

Values after ≈ are worked out from the molar mass of the structure shown.

In data set [1] the test system is Staphylococcus aureus. Briefly: Antibacterial activity against Staphylococcus aureus. The class given is functional.
The test system of data set [2] is Escherichia coli. The experiment in a line: Antibacterial activity against Escherichia coli. It counts as functional.
Data set [3] deals with Staphylococcus aureus. The experiment in a line: Antibacterial activity against linezolid-nonsusceptible Staphylococcus aureus. The class given is functional.
Data set [4] can be described thus: Intrinsic clearance in BALB/c mouse at 24 mg/kg, iv. It counts as ADME, organism-based. As to conditions: in vivo.
The subject of data set [5] is Staphylococcus aureus. Briefly: Antibacterial activity against methicillin-resistant Staphylococcus aureus. The class given is functional.
Data set [6] deals with Staphylococcus aureus. Briefly: Antibacterial activity against vancomycin-resistant Staphylococcus aureus. It counts as functional.
In data set [7] the test system is Enterococcus faecalis. Briefly: Antibacterial activity against Enterococcus faecalis. It counts as functional.
The test system of data set [8] is Streptococcus pyogenes. Briefly: Antibacterial activity against Streptococcus pyogenes. The class given is functional.
In data set [9] the test system is Streptococcus pneumoniae. Briefly: Antibacterial activity against Streptococcus pneumoniae. The class given is functional.
In data set [10] the target is T1, Cell division protein FtsZ (Staphylococcus aureus, UniProt P0A031).
T1 sequence (P0A031 whole entry): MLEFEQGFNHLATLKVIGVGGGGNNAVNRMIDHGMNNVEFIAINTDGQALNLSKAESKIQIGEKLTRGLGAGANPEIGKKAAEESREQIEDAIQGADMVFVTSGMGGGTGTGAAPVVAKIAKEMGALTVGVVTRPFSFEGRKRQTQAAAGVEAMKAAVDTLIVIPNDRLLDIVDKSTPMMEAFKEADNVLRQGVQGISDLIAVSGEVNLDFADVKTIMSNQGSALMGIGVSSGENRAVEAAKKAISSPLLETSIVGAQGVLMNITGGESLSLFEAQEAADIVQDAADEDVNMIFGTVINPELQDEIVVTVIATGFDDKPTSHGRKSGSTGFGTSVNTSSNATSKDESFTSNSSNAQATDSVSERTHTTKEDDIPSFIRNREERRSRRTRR
Briefly: Inhibition of Staphylococcus aureus FTsZ GTPase activity.

The subject of data set [11] is Bacillus subtilis. Briefly: Antibacterial activity against Bacillus subtilis. The class given is functional.
For data set [12], the system named is Neisseria gonorrhoeae. The experiment in a line: Antibacterial activity against Neisseria gonorrhoeae. It counts as functional.
In data set [13] the test system is Haemophilus influenzae. Briefly: Antibacterial activity against Haemophilus influenzae. The class given is functional.
Data set [14] has as its system Enterococcus faecium. The experiment in a line: Antibacterial activity against Enterococcus faecium. It counts as functional.
For data set [15], the system named is Acinetobacter baumannii. The experiment in a line: Antibacterial activity against Acinetobacter baumannii. It counts as functional.
In data set [16] the test system is Klebsiella pneumoniae. The experiment in a line: Antibacterial activity against Klebsiella pneumoniae. It counts as functional.
Data set [17] relates to Pseudomonas aeruginosa. The experiment in a line: Antibacterial activity against Pseudomonas aeruginosa. It counts as functional.
The test system of data set [18] is Neisseria meningitidis. The experiment in a line: Antibacterial activity against Neisseria meningitidis. The class given is functional.
Data set [19] relates to Micrococcus luteus. Briefly: Antibacterial activity against Micrococcus luteus. The class given is functional.

For the compound `Cc1cc(Cl)ccc1OC(C)C(=O)Nc1ccc(C(=O)Nc2ccccc2C(=O)O)cc1` (centres undefined), the MIC in [1] was more than 25 µg/mL; in [2], more than 200 µg/mL.

As to `CN1CCC(C(=O)NC(=O)c2c(F)ccc(OCc3nc4cc(C(F)(F)F)cnc4s3)c2F)CC1`, the MIC in data set [3], in data set [5] and in [6] was 2 µg/mL (≈ 3.89 µM) in each case. In data set [4], this compound showed a CL of 9.4 mL/min/kg.

The IC50 is the midpoint of a concentration-inhibition curve. Low readings indicate greater potency, high ones weaker potency. Regarding `NC(=O)c1c(F)ccc(OCc2nc3cc(Cl)cnc3s2)c1F`, the MIC in data set [7] was more than 64 µg/mL; in [8], more than 64 µg/mL; in data set [5], 1 µg/mL (≈ 2.81 µM); in data set [9], more than 64 µg/mL; in data set [11] it was 1 µg/mL (≈ 2.81 µM); in [2], more than 64 µg/mL. The compound also registered a CL in data set [4] of 55.11 mL/min/kg. Moreover, the midpoint of inhibition in data set [10], the IC50, lay at 150 nM.

On to `COc1ccc(/C=C(\C#N)C(=O)Nc2cccc(C(=O)O)c2)cc1OC(=O)c1cccc2ccccc12`, for which the MIC was more than 50 µg/mL in data set [1] and more than 200 µg/mL in [2].

In the case of `C/C=C\C=C\[C@@H]1C[C@](O)([C@H](CC)C(=O)NC/C=C/C=C(\C)[C@H](OC)[C@H](C)C2O[C@H](/C=C/C=C/C=C(\C)C(=O)c3c(O)cc[nH]c3=O)[C@H](O)[C@@H]2O)[C@H](O)[C@H](O)C1(C)C` (some centres undefined), the MIC in [7] is more than 32 µg/mL; in [12] it was 0.06 µg/mL (≈ 0.0755 µM); in data set [13], 4 µg/mL (≈ 5.03 µM); in data set [14], 2 µg/mL (≈ 2.52 µM); in data set [1], more than 32 µg/mL; in data set [2] it was more than 128 µg/mL.

As to `O=C(O)c1[nH]c2ccc(Cl)cc2c1CC(=O)N1CCN(c2ccc(C(F)(F)F)cc2)CC1`, the MIC is more than 50 µg/mL in data set [1] and more than 200 µg/mL in data set [2].

In the case of `CO[C@@H]1[C@H](O)[C@@H](OC)[C@H](O[C@@H](C)[C@@H](O)/C=C/C=C/C=C/C(=O)[C@@H](C)[C@@H](O)[C@H](C)C2C/C=C/C=C/C=C/[C@H](O)C(=O)/C(C)=C/C=C/C(C)=C/[C@@H](O)/C(C)=C/CC(=O)O2)O[C@@H]1C` (some centres undefined), the MIC in data set [7] was 32 µg/mL (≈ 38.1 µM); in data set [15], 32 µg/mL (≈ 38.1 µM); in [16], more than 128 µg/mL; in [1], 2 µg/mL (≈ 2.38 µM); in [2], 32 µg/mL (≈ 38.1 µM); in data set [17], 32 µg/mL (≈ 38.1 µM).

On to `CC/C=C/[C@@H](OC(N)=O)[C@@H](Cl)[C@H](O)CC(=O)[C@@H](O)[C@H](O)C(C)/C(Cl)=C/C=C/C=C(C)/C=C/C=C/C(=O)O[C@@H]1CC(C(=O)O)CC[C@@H]1O` (some centres undefined), for which the MIC is more than 32 µg/mL in [15], 2 µg/mL (≈ 2.85 µM) in data set [1] and more than 32 µg/mL in data set [17].

On to `CC(=O)O[C@H]1C[C@@]2(C)[C@@H](C[C@@H](O)[C@H]3[C@@]4(C)CC[C@@H](O)[C@@H](C)[C@@H]4CC[C@@]32C)/C1=C(\CCC=C(C)C)C(=O)O` [FUSIDIC ACID], for which the MIC was 2 µg/mL (≈ 3.87 µM) in data set [7]; 16 µg/mL (≈ 31 µM) in data set [8]; 0.25 µg/mL (≈ 0.484 µM) in data set [5]; 0.25 µg/mL (≈ 0.484 µM) in data set [18]; more than 32 µg/mL in data set [2]; 0.5 µg/mL (≈ 0.968 µM) in data set [19].
